What was measured:
Type in all cases: in vivo
[1] = system: Erysiphe graminis tritici (powdery mildew); test: Test 1 greenhouse foliar spray screen, powdery mildew on wheat; details: disease control rating, foliar spray on wheat, 400 ppm (+++ at 100 ppm)
[2] = system: Pyricularia oryzae (rice blast); test: whole plant or invertebrate; details: disease control rating, foliar spray on rice, 400 ppm (+++ at 100 ppm)
[3] = system: Puccinia recondita tritici (leaf rust); test: Test 1 greenhouse foliar spray screen, leaf rust on wheat; details: disease control rating, foliar spray on wheat, 400 ppm (+++ at 100 ppm)
[4] = system: Botrytis cinerea (gray mold); test: Test 1 greenhouse foliar spray screen, gray mold on grape berries; details: disease control rating, spray on grape berries, 400 ppm (+++ at 100 ppm)
[5] = system: Pseudoperonospora cubensis (downy mildew); test: Test 1 greenhouse foliar spray screen, downy mildew on squash; details: disease control rating, foliar spray on squash, 400 ppm (+++ at 100 ppm)
[6] = system: Venturia inaequalis (apple scab); test: Test 1 greenhouse foliar spray screen, apple scab on apple seedling; details: disease control rating, foliar spray on apple seedling, 400 ppm (+++ at 100 ppm)
[7] = system: Septoria tritici (leaf blotch); test: Test 1 greenhouse foliar spray screen, leaf blotch on wheat; details: disease control rating, foliar spray on wheat, 400 ppm (+++ at 100 ppm)
[8] = system: southern armyworm (Spodopetra eridania Cramer); test: Mite/insect screen, SAW; details: Spodoptera eridania, percent mortality; SAW, SM & MA RATE 200 PPM; read-out: SAW RESULTS %
Method in brief: (§1)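 Compounds dissolved in 50:50 acetone/alcohol containing sulfonate/nonionic emulsifier blends, then diluted with water to the indicated concentrations. Leaves sprayed on both surfaces to runoff at 10 psi and dried one hour. Percent mortality scored after standard exposure periods.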

[9] = system: Twospotted spider mites (Tetranychus urticae Koch); test: Mite/insect screen, SM; details: Tetranychus urticae, percent mortality; SAW, SM & MA RATE 200 PPM; read-out: SM RESULTS %
Method in brief: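 Activity is expressed as percent mortality at the indicated spray concentrations. Plants are sprayed to runoff on upper and lower leaf surfaces with aqueous dilutions of an acetone/alcohol emulsifiable formulation, then dried for one hour.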

[10] = system: melon aphids (Aphis gossypii Glover); test: Mite/insect screen, MA; details: Aphis gossypii, percent mortality; SAW, SM & MA RATE 200 PPM; read-out: MA RESULTS %
Method in brief: as §1

corn rootworm = test: Mite/insect screen, CRW; details: percent mortality; CRW RATE 12.00 PPM; read-out: CRW RESULTS %
Method in brief: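 Compounds were dissolved in 50:50 acetone/alcohol containing sulfonate/nonionic emulsifier blends (23 g/L plus 13 g/L), then diluted with water to the test concentrations. Percent mortality was scored after standard exposure periods.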

Row | Compound | POWD MDEW [1] | RICE BLAST [2] | LEAF RUST [3] | GRAY MOLD [4] | DOWN MDEW [5] | APPL SCAB [6] | LEAF BLOT [7] | mortality at 200 ppm [8] | mortality at 200 ppm [9] | mortality at 200 ppm [10] | mortality at 12 ppm (corn rootworm)
1 | FC(F)(F)c1ccc2c(NCCc3ccccc3)ccnc2c1 [Example 17, N-(2-phenylethyl)-7-(trifluoromethyl)-4-quinolinamine] | ++ (90-100% control at 400 ppm) | + (20-89% control at 400 ppm) | ++ (90-100% control at 400 ppm) | - (0-19% control at 400 ppm) | ++ (90-100% control at 400 ppm) | - (0-19% control at 400 ppm) | - (0-19% control at 400 ppm) | 0% | 0% | 0% | 0%
2 | Brc1ccc(CCNc2ccnc3ccccc23)cc1 [Example 18, N-[2-(4-bromophenyl)ethyl]-4-quinolinamine] | + (20-89% control at 400 ppm) | ++ (90-100% control at 400 ppm) | ++ (90-100% control at 400 ppm) | + (20-89% control at 400 ppm) | ++ (90-100% control at 400 ppm) | - (0-19% control at 400 ppm) | - (0-19% control at 400 ppm) | 0% | 0% | 0% | 0%
3 | Cc1ccc(CCNc2ccnc3ccccc23)cc1 [Example 19, N-[2-(4-methylphenyl)ethyl]-4-quinolinamine] | + (20-89% control at 400 ppm) | ++ (90-100% control at 400 ppm) | ++ (90-100% control at 400 ppm) | - (0-19% control at 400 ppm) | +++ (90-100% control at 100 ppm) | - (0-19% control at 400 ppm) | - (0-19% control at 400 ppm) | 0% | 0% | 0% | 0%
4 | Clc1ccc(CCNc2ccnc3ccccc23)cc1 [Example 20, N-[2-(4-chlorophenyl)ethyl]-4-quinolinamine] | + (20-89% control at 400 ppm) | + (20-89% control at 400 ppm) | + (20-89% control at 400 ppm) | - (0-19% control at 400 ppm) | +++ (90-100% control at 100 ppm) | - (0-19% control at 400 ppm) | - (0-19% control at 400 ppm) | 0% | 0% | 0% | 0%
5 | CC(CNc1ccnc2ccccc12)c1ccccc1 (stereo not shown) [Example 21, N-(2-phenylpropyl)-4-quinolinamine] | + (20-89% control at 400 ppm) | + (20-89% control at 400 ppm) | + (20-89% control at 400 ppm) | - (0-19% control at 400 ppm) | ++ (90-100% control at 400 ppm) | - (0-19% control at 400 ppm) | - (0-19% control at 400 ppm) | 0% | 0% | 0% | 0%
6 | COc1ccc(CCNc2ccnc3ccccc23)cc1 [Example 22, N-[2-(4-methoxyphenyl)-ethyl]-4-quinolinamine] | + (20-89% control at 400 ppm) | + (20-89% control at 400 ppm) | + (20-89% control at 400 ppm) | - (0-19% control at 400 ppm) | +++ (90-100% control at 100 ppm) | - (0-19% control at 400 ppm) | - (0-19% control at 400 ppm) | 0% | 0% | 0% | 0%
7 | c1ccc(C(CNc2ccnc3ccccc23)c2ccccc2)cc1 [Example 23, N-(2,2-diphenylethyl)-4-quinolinamine] | + (20-89% control at 400 ppm) | + (20-89% control at 400 ppm) | + (20-89% control at 400 ppm) | - (0-19% control at 400 ppm) | +++ (90-100% control at 100 ppm) | - (0-19% control at 400 ppm) | - (0-19% control at 400 ppm) | 0% | 0% | 0% | 0%
8 | CC(Cc1ccccc1)Nc1ccnc2ccccc12 (stereo not shown) [Example 24, N-(1-methyl-2-phenylethyl)-4-quinolinamine] | + (20-89% control at 400 ppm) | + (20-89% control at 400 ppm) | + (20-89% control at 400 ppm) | - (0-19% control at 400 ppm) | +++ (90-100% control at 100 ppm) | - (0-19% control at 400 ppm) | - (0-19% control at 400 ppm) | 0% | 0% | 0% | 0%
9 | Clc1cc(NCCc2ccccc2)c2ccccc2n1 [Example 25, 2-chloro-N-(2-phenylethyl)-4-quinolinamine] | + (20-89% control at 400 ppm) | + (20-89% control at 400 ppm) | ++ (90-100% control at 400 ppm) | - (0-19% control at 400 ppm) | +++ (90-100% control at 100 ppm) | - (0-19% control at 400 ppm) | - (0-19% control at 400 ppm) | 0% | 0% | 0% | 0%
10 | OC(CNc1ccnc2ccccc12)c1ccccc1 (stereo not drawn) [Example 26, α-[(4-quinolinylamino)methyl]benzenemethanol] | + (20-89% control at 400 ppm) | + (20-89% control at 400 ppm) | - (0-19% control at 400 ppm) | - (0-19% control at 400 ppm) | +++ (90-100% control at 100 ppm) | - (0-19% control at 400 ppm) | - (0-19% control at 400 ppm) | 0% | 0% | 0% | 0%
11 | Cc1cccc2c(NCCc3ccccc3)ccnc12 [Example 27, 8-methyl-N-(2-phenylethyl)-4-quinolinamine] | + (20-89% control at 400 ppm) | ++ (90-100% control at 400 ppm) | + (20-89% control at 400 ppm) | - (0-19% control at 400 ppm) | +++ (90-100% control at 100 ppm) | - (0-19% control at 400 ppm) | - (0-19% control at 400 ppm) | 0% | 0% | 0% | 0%
12 | Cc1cc(C)c2nccc(NCCc3ccccc3)c2c1 [Example 28, 6,8-dimethyl-N-(2-phenylethyl)-4-quinolinamine] | + (20-89% control at 400 ppm) | ++ (90-100% control at 400 ppm) | + (20-89% control at 400 ppm) | - (0-19% control at 400 ppm) | +++ (90-100% control at 100 ppm) | - (0-19% control at 400 ppm) | - (0-19% control at 400 ppm) | 0% | 0% | 0% | 0%
13 | Cc1ccc2nccc(NCCc3ccccc3)c2c1 [Example 30, 6-methyl-N-(2-phenylethyl)-4-quinolinamine] | - (0-19% control at 400 ppm) | + (20-89% control at 400 ppm) | + (20-89% control at 400 ppm) | - (0-19% control at 400 ppm) | +++ (90-100% control at 100 ppm) | - (0-19% control at 400 ppm) | - (0-19% control at 400 ppm) | 0% | 0% | 0% | 0%
14 | Clc1ccc2c(NCCc3ccccc3)ccnc2c1 [Example 31, 7-chloro-N-(2-phenylethyl)-4-quinolinamine] | ++ (90-100% control at 400 ppm) | + (20-89% control at 400 ppm) | + (20-89% control at 400 ppm) | - (0-19% control at 400 ppm) | +++ (90-100% control at 100 ppm) | - (0-19% control at 400 ppm) | - (0-19% control at 400 ppm) | 0% | 0% | 0% | 0%

Reference: EP0326331B1, “Substituted quinolines and cinnolines” (Dow AgroSciences LLC, priority 1988, dated 1989)
